# Test results from PubChem BioAssay (NCI).
#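 Results reflect a 48-hour exposure of cells in 96-well plates to compound at five concentrations. Definition used: TGI = concentration required for complete inhibition of growth.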
# Columns and labels:
# Assay in all cases: NCI-60 cell line screen, 48 h
# MDA-MB-435 = test system: MDA-MB-435
# BT-549 breast = test system: BT-549 breast
# NCI-H522 lung = test system: NCI-H522 lung
# IGROV1 ovarian = test system: IGROV1 ovarian
# COLO 205 colon = test system: COLO 205 colon
# SK-MEL-2 melanoma = test system: SK-MEL-2 melanoma
# SNB-19 CNS = test system: SNB-19 CNS
# OVCAR-4 ovarian = test system: OVCAR-4 ovarian
SMILES,TGI (MDA-MB-435),TGI (BT-549 breast),TGI (NCI-H522 lung),TGI (IGROV1 ovarian),TGI (COLO 205 colon),TGI (SK-MEL-2 melanoma),TGI (SNB-19 CNS),TGI (OVCAR-4 ovarian)
CCCC(CCC(=O)O)(CCC(=O)O)[N+](=O)[O-],> 100 µM,> 100 µM,> 100 µM,> 100 µM,> 100 µM,> 100 µM,> 100 µM,–
COC(=O)C1=C(C(=O)OC)SC2(S1)C(C(=O)OC)=C(C(=O)OC)Sc1c2ssc1=O,4.36 µM,2.89 µM,0.581 µM,3.63 µM,2.08 µM,4.1 µM,34.2 µM,2.79 µM
O=S1(=O)OCCOS(=O)(=O)C1C1c2ccccc2-c2ccccc21,> 100 µM,> 100 µM,64.5 µM,> 100 µM,> 100 µM,> 100 µM,> 100 µM,52.4 µM
COc1ccc2nc3c(nc2c1)C(C)(C)C=C3c1ccc(Br)cc1,> 100 µM,> 100 µM,> 100 µM,> 100 µM,> 100 µM,> 100 µM,> 100 µM,> 100 µM
Clc1ccc(CCNCCNC2(c3cc4ccccc4s3)CCCCC2)cc1Cl,3.83 µM,3.44 µM,3.37 µM,3.24 µM,2.99 µM,3.2 µM,3.83 µM,3.17 µM
COc1ccc2cc(CNCCOCCOCCNCc3ccc4cc(OC)ccc4c3)ccc2c1,1.21 µM,3.59 µM,3.49 µM,3.45 µM,0.346 µM,3.18 µM,3.09 µM,4.07 µM
C1=Nc2ccc(cc2)-c2ccc(cc2)N=Cc2ccccc2OCc2cccc(n2)COc2ccccc21,> 100 µM,> 95.4 µM,> 96.5 µM,> 100 µM,> 100 µM,> 76.3 µM,46.4 µM,> 100 µM
Cc1cc2nc3c(C)c4ccccc4c(C)n3c2cc1C,> 10 µM,> 10 µM,> 10 µM,> 10 µM,> 10 µM,> 10 µM,> 10 µM,> 10 µM
COc1ccc(C2=Nn3c(nc4sc5c(c4c3=O)CCCC5)SC2)cc1,> 100 µM,> 100 µM,> 100 µM,> 100 µM,> 100 µM,–,–,> 100 µM
CCOC(=O)C1=C(C)NC(c2ccccc2)=C(C(=O)OCc2ccccc2)C1C#Cc1ccccc1 (configuration not stated),> 100 µM,> 100 µM,–,> 100 µM,> 100 µM,> 100 µM,> 100 µM,–
CN1CN(c2ccccc2)C2(CCN(C(=O)OC(C)(C)C)CC2)C1=O,> 100 µM,> 100 µM,> 100 µM,> 100 µM,> 100 µM,> 100 µM,> 100 µM,> 100 µM
Nc1nc(Cl)cc(OCC2(CO)CCCCC2)n1,> 100 µM,–,> 100 µM,> 100 µM,–,–,> 100 µM,> 100 µM
Cn1c(SCc2ccc([N+](=O)[O-])cc2)nnc1C12CC3CC(CC(C3)C1)C2,> 10 µM,> 10 µM,> 10 µM,> 10 µM,> 10 µM,> 10 µM,> 10 µM,> 10 µM
Cc1ccnc2[nH]c(-c3ccc(Cl)cc3)cc(=O)c12,–,> 100 µM,> 100 µM,> 100 µM,> 21.9 µM,> 100 µM,> 100 µM,> 100 µM
CC(=O)O[C@H]1C(=O)[C@@]2(C)C(C(OC(=O)c3ccccc3)[C@]3(O)CC(OC(=O)C(O)C(NC(=O)c4cccc(Cl)c4)c4ccccc4)C(C)=C1C3(C)C)[C@]1(OC(C)=O)CO[C@@H]1C[C@@H]2O (some centres not stated),0.417 µM,> 10 µM,3.83 µM,> 10 µM,4.58 µM,> 10 µM,> 10 µM,> 10 µM
O=c1oc2c(Cl)cc(Cl)cc2cc1-c1cn2c(n1)sc1ccccc12,> 100 µM,87.4 µM,88.8 µM,> 100 µM,> 100 µM,> 100 µM,> 100 µM,> 100 µM
CCc1c[n+]2c(cc1C1=CN3c4ccccc4[C@]45CCN6C/C(=C/CO)[C@H](C[C@H]64)[C@@H]([C@@H]1O)[C@H]35)-c1[nH]c3ccccc3c1CC2,> 50 µM,> 50 µM,> 50 µM,> 50 µM,> 50 µM,> 50 µM,> 50 µM,> 50 µM
Nc1nc(Cl)cc(Oc2ccc(Cl)cc2)n1,> 100 µM,> 100 µM,> 72.8 µM,> 100 µM,> 100 µM,> 100 µM,> 100 µM,> 100 µM
C#CCn1c(=O)c2cc(OC)c(OC)cc2n(CC#C)c1=O,> 10 µM,–,> 10 µM,> 10 µM,> 10 µM,> 10 µM,> 10 µM,> 10 µM
